This note sets out measurements from ChEMBL document CHEMBL1124693, “Synthesis of the novel pi-(benzyloxymethyl)-protected histidine analogue of statine. Inhibition of penicillopepsin by pepstatin-derived peptides containing different statine side-chain derivatives” (J Med Chem, 1989).

The subject of experiment [1] is Penicillopepsin (Penicillium janthinellum). As to the kind of experiment: Inhibitory activity against pencillopepsin.
For experiment [2] the test system is unchanged. Kind of experiment: Slow binding kinetics after pre-incubation of enzyme and inhibitor for 10 min before substrate addition;+ indicates weak inhibition of penicillopepsin.

Some results are limits rather than exact numbers.

In general, Ki refers to the equilibrium dissociation constant of an inhibitor or competing ligand from its target. A high value points to weaker binding. Consider `CCOC(=O)C[C@H](O)[C@H](CC(C)C)NC(=O)[C@H](NC(=O)[C@@H](NC(=O)CC(C)C)C(C)C)C(C)C`, for which the inhibitory constant (Ki) in experiment [1] was above 18 µM. In experiment [1], `CCOC(=O)C[C@H](O)[C@H](CCCN)NC(=O)[C@@H](NC(=O)[C@@H](NC(=O)CC(C)C)C(C)C)C(C)C` came in with an inhibition constant (Ki) of 0.0011 µM.

Consider `CCOC(=O)C[C@H](O)[C@H](CC(C)C)NC(=O)[C@@H](NC(=O)[C@@H](NC(=O)CC(C)C)C(C)C)C(C)C`, for which the Ki in experiment [1] turned out to be 0.072 µM.

The compound `CCOC(=O)C[C@H](O)[C@H](Cc1ccccc1)NC(=O)[C@@H](NC(=O)[C@@H](NC(=O)CC(C)C)C(C)C)C(C)C` displayed a Ki in experiment [1] of 0.015 µM. The compound `COC(=O)C[C@H](O)[C@H](Cc1c[nH]cn1)NC(=O)[C@@H](NC(=O)[C@@H](NC(=O)CC(C)C)C(C)C)C(C)C` showed a Ki in experiment [1] of 0.0045 µM. Further, the Slow binding entry in experiment [2] was “weak inhibition of porcine pepsin”.
